# Measured values from patent publication US10398751B2, “Pharmaceutical compositions of water soluble peptides with poor solubility in isotonic conditions and methods for their use” (STRONGBRIDGE IRELAND LIMITED, priority 2016, dated 2019).
# Counter-ions that a name gives are not always drawn. Like-named read-outs stand apart in the source and are kept apart here.
# Tests used:
# [1] = Solubility screening of veldoreotide acetate (10 mg, incremental volumes of medium, USP definition); format: physicochemical
# Source text: The solubility of veldoreotide acetate in aqueous media was screened by the following method. A fixed amount of 10 milligrams of the peptide was weighed and dissolved at ambient temperature by increased (incremental) volumes of the tested medium until a complete solubility was observed, i.e, clear/transparent solution and absence of any precipitates (the solubility endpoint values were defined according to USP guidance). Following the results of the screening studies, several media were selected for verification studies based on quantitative assessment of the peptide concentration by HPLC (maximal solubility). The results of the screening study are depicted in Table 1 while the results of the verification studies are included in Table 2.
# [2] = system: CHO-cells expression cloned human SST-R5; assay: Growth inhibition of CHO cells; format: cell-based
structure (smiles),measurement,setting,value
"C[C@@H](O)[C@@H]1NC(=O)[C@H](CCCCN)NC(=O)[C@@H](Cc2c[nH]c3ccccc23)NC(=O)[C@H](Cc2c[nH]c3ccccc23)NC(=O)[C@H](Cc2ccccc2)NC(=O)CCCNC(=O)CCCN(CC(N)=O)C(=O)[C@H](Cc2ccccc2)NC1=O [Veldoreotide Acetate, Cyclo(-γ-aminobutyryl-L-phenylalanyl-L-tryptophanyl-D-tryptophanyl-L-lysyl-L-threonyl-L-phenylalanyl-N-carbamoylmethyl-γ-aminobutyryl), acetate salt]",solubility,"[1]; Acetone (USP), 10 ml Slightly soluble (0.001 g/ml; 1 mg/ml), 10 mg in Acetone (USP)",> 1 mg/mL
same,solubility,"[1]; Dextrose 5% (USP), 10 mg in Dextrose 5% (USP), read-out: 0.01 ml Very soluble (1 g/ml)",< 1000 mg/mL
same,solubility,"[1]; Dextrose 5% (USP), 10 mg in Dextrose 5% (USP), read-out: 0.5 ml Soluble (0.02 g/ml; 20 mg/ml)",> 20 mg/mL
same,solubility,"[1]; Dextrose 5% (USP), 10 mg in Dextrose 5% (USP), read-out: 1 ml Sparingly soluble (0.01 g/ml; 10 mg/ml)",> 10 mg/mL
same,solubility,"[1]; Dextrose 5% (USP), 0.1 ml Freely soluble (0.1 g/ml), 10 mg in Dextrose 5% (USP)",> 100 mg/mL
same,solubility,"[1]; Dextrose 5% (USP), 10 ml Slightly soluble (0.001 g/ml; 1 mg/ml), 10 mg in Dextrose 5% (USP)",> 1 mg/mL
same,solubility,"[1]; Ethanol (USP), 10 mg in Ethanol (USP), read-out: 0.01 ml Very soluble (1 g/ml)",< 1000 mg/mL
same,solubility,"[1]; Ethanol (USP), 10 mg in Ethanol (USP), read-out: 0.5 ml Soluble (0.02 g/ml; 20 mg/ml)",> 20 mg/mL
same,solubility,"[1]; Ethanol (USP), 10 mg in Ethanol (USP), read-out: 1 ml Sparingly soluble (0.01 g/ml; 10 mg/ml)",> 10 mg/mL
same,solubility,"[1]; Ethanol (USP), 0.1 ml Freely soluble (0.1 g/ml), 10 mg in Ethanol (USP)",> 100 mg/mL
same,solubility,"[1]; Ethanol (USP), 10 ml Slightly soluble (0.001 g/ml; 1 mg/ml), 10 mg in Ethanol (USP)",> 1 mg/mL
same,solubility,"[1]; Lactic acid 37 mM, Mannitol 250 mM, pH 4.3, 10 mg in Lactic acid 37 mM, Mannitol 250 mM (pH 4.3), read-out: 0.01 ml Very soluble (1 g/ml)",< 1000 mg/mL
same,solubility,"[1]; Lactic acid 37 mM, Mannitol 250 mM, pH 4.3, 10 mg in Lactic acid 37 mM, Mannitol 250 mM (pH 4.3), read-out: 0.5 ml Soluble (0.02 g/ml; 20 mg/ml)",> 20 mg/mL
same,solubility,"[1]; Lactic acid 37 mM, Mannitol 250 mM, pH 4.3, 10 mg in Lactic acid 37 mM, Mannitol 250 mM (pH 4.3), read-out: 1 ml Sparingly soluble (0.01 g/ml; 10 mg/ml)",> 10 mg/mL
same,solubility,"[1]; Lactic acid 37 mM, Mannitol 250 mM, pH 4.3, 0.1 ml Freely soluble (0.1 g/ml), 10 mg in Lactic acid 37 mM, Mannitol 250 mM (pH 4.3)",> 100 mg/mL
same,solubility,"[1]; Lactic acid 37 mM, Mannitol 250 mM, pH 4.3, 10 ml Slightly soluble (0.001 g/ml; 1 mg/ml), 10 mg in Lactic acid 37 mM, Mannitol 250 mM (pH 4.3)",> 1 mg/mL
same,solubility,"[1]; PBS, pH 7.2, 10 mg in PBS pH 7.2, read-out: 0.01 ml Very soluble (1 g/ml)",< 1000 mg/mL
same,solubility,"[1]; PBS, pH 7.2, 10 mg in PBS pH 7.2, read-out: 0.5 ml Soluble (0.02 g/ml; 20 mg/ml)",< 20 mg/mL
same,solubility,"[1]; PBS, pH 7.2, 10 mg in PBS pH 7.2, read-out: 1 ml Sparingly soluble (0.01 g/ml; 10 mg/ml)",< 10 mg/mL
same,solubility,"[1]; PBS, pH 7.2, 0.1 ml Freely soluble (0.1 g/ml), 10 mg in PBS pH 7.2",< 100 mg/mL
same,solubility,"[1]; PBS, pH 7.2, 10 ml Slightly soluble (0.001 g/ml; 1 mg/ml), 10 mg in PBS pH 7.2",< 1 mg/mL
same,solubility,"[1]; Propylene glycol, 10 mg in Propylene glycol, read-out: 0.01 ml Very soluble (1 g/ml)",< 1000 mg/mL
same,solubility,"[1]; Propylene glycol, 10 mg in Propylene glycol, read-out: 0.5 ml Soluble (0.02 g/ml; 20 mg/ml)",> 20 mg/mL
same,solubility,"[1]; Propylene glycol, 10 mg in Propylene glycol, read-out: 1 ml Sparingly soluble (0.01 g/ml; 10 mg/ml)",> 10 mg/mL
same,solubility,"[1]; Propylene glycol, 0.1 ml Freely soluble (0.1 g/ml), 10 mg in Propylene glycol",> 100 mg/mL
same,solubility,"[1]; Propylene glycol, 10 ml Slightly soluble (0.001 g/ml; 1 mg/ml), 10 mg in Propylene glycol",> 1 mg/mL
same,solubility,"[1]; Saline (USP) (0.9% NaCl), pH 4.5, 10 mg in Saline (USP) (0.9% NaCl) pH 4.5, read-out: 0.01 ml Very soluble (1 g/ml)",< 1000 mg/mL
same,solubility,"[1]; Saline (USP) (0.9% NaCl), pH 4.5, 10 mg in Saline (USP) (0.9% NaCl) pH 4.5, read-out: 0.5 ml Soluble (0.02 g/ml; 20 mg/ml)",< 20 mg/mL
same,solubility,"[1]; Saline (USP) (0.9% NaCl), pH 4.5, 10 mg in Saline (USP) (0.9% NaCl) pH 4.5, read-out: 1 ml Sparingly soluble (0.01 g/ml; 10 mg/ml)",< 10 mg/mL
same,solubility,"[1]; Saline (USP) (0.9% NaCl), pH 4.5, 0.1 ml Freely soluble (0.1 g/ml), 10 mg in Saline (USP) (0.9% NaCl) pH 4.5",< 100 mg/mL
same,solubility,"[1]; Saline (USP) (0.9% NaCl), pH 4.5, 10 ml Slightly soluble (0.001 g/ml; 1 mg/ml), 10 mg in Saline (USP) (0.9% NaCl) pH 4.5",< 1 mg/mL
same,solubility,"[1]; caprylic acid, 10 mg in Caprylic acid, read-out: 0.01 ml Very soluble (1 g/ml)",< 1000 mg/mL
same,solubility,"[1]; caprylic acid, 10 mg in Caprylic acid, read-out: 0.5 ml Soluble (0.02 g/ml; 20 mg/ml)",> 20 mg/mL
same,solubility,"[1]; caprylic acid, 10 mg in Caprylic acid, read-out: 1 ml Sparingly soluble (0.01 g/ml; 10 mg/ml)",> 10 mg/mL
same,solubility,"[1]; caprylic acid, 0.1 ml Freely soluble (0.1 g/ml), 10 mg in Caprylic acid",< 100 mg/mL
same,solubility,"[1]; caprylic acid, 10 ml Slightly soluble (0.001 g/ml; 1 mg/ml), 10 mg in Caprylic acid",> 1 mg/mL
same,solubility,"[1]; double distilled water, 10 mg in DDW (Double distilled water), read-out: 0.01 ml Very soluble (1 g/ml)",< 1000 mg/mL
same,solubility,"[1]; double distilled water, 10 mg in DDW (Double distilled water), read-out: 0.5 ml Soluble (0.02 g/ml; 20 mg/ml)",> 20 mg/mL
same,solubility,"[1]; double distilled water, 10 mg in DDW (Double distilled water), read-out: 1 ml Sparingly soluble (0.01 g/ml; 10 mg/ml)",> 10 mg/mL
same,solubility,"[1]; double distilled water, 0.1 ml Freely soluble (0.1 g/ml), 10 mg in DDW (Double distilled water)",> 100 mg/mL
same,solubility,"[1]; double distilled water, 10 ml Slightly soluble (0.001 g/ml; 1 mg/ml), 10 mg in DDW (Double distilled water)",> 1 mg/mL
same,solubility,"[1]; glycerol, 10 mg in Glycerol, read-out: 0.01 ml Very soluble (1 g/ml)",< 1000 mg/mL
same,solubility,"[1]; glycerol, 10 mg in Glycerol, read-out: 0.5 ml Soluble (0.02 g/ml; 20 mg/ml)",> 20 mg/mL
same,solubility,"[1]; glycerol, 10 mg in Glycerol, read-out: 1 ml Sparingly soluble (0.01 g/ml; 10 mg/ml)",> 10 mg/mL
same,solubility,"[1]; glycerol, 0.1 ml Freely soluble (0.1 g/ml), 10 mg in Glycerol",< 100 mg/mL
same,solubility,"[1]; glycerol, 10 ml Slightly soluble (0.001 g/ml; 1 mg/ml), 10 mg in Glycerol",> 1 mg/mL
same,solubility,"[1]; oleic acid, 10 mg in Oleic acid, read-out: 0.01 ml Very soluble (1 g/ml)",< 1000 mg/mL
same,solubility,"[1]; oleic acid, 10 mg in Oleic acid, read-out: 0.5 ml Soluble (0.02 g/ml; 20 mg/ml)",< 20 mg/mL
same,solubility,"[1]; oleic acid, 10 mg in Oleic acid, read-out: 1 ml Sparingly soluble (0.01 g/ml; 10 mg/ml)",< 10 mg/mL
same,solubility,"[1]; oleic acid, 0.1 ml Freely soluble (0.1 g/ml), 10 mg in Oleic acid",< 100 mg/mL
same,solubility,"[1]; oleic acid, 10 ml Slightly soluble (0.001 g/ml; 1 mg/ml), 10 mg in Oleic acid",< 1 mg/mL
same,solubility,"[1]; refined vegetable oils (olive, cotton, coconut, canola), 10 mg in Refined vegetable oils, Olive, Cotton, Coconut, Canola, read-out: 0.01 ml Very soluble (1 g/ml)",< 1000 mg/mL
same,solubility,"[1]; refined vegetable oils (olive, cotton, coconut, canola), 10 mg in Refined vegetable oils, Olive, Cotton, Coconut, Canola, read-out: 0.5 ml Soluble (0.02 g/ml; 20 mg/ml)",< 20 mg/mL
same,solubility,"[1]; refined vegetable oils (olive, cotton, coconut, canola), 10 mg in Refined vegetable oils, Olive, Cotton, Coconut, Canola, read-out: 1 ml Sparingly soluble (0.01 g/ml; 10 mg/ml)",< 10 mg/mL
same,solubility,"[1]; refined vegetable oils (olive, cotton, coconut, canola), 0.1 ml Freely soluble (0.1 g/ml), 10 mg in Refined vegetable oils, Olive, Cotton, Coconut, Canola",< 100 mg/mL
same,solubility,"[1]; refined vegetable oils (olive, cotton, coconut, canola), 10 ml Slightly soluble (0.001 g/ml; 1 mg/ml), 10 mg in Refined vegetable oils, Olive, Cotton, Coconut, Canola",< 1 mg/mL
same,solubility,"[1]; water for injection (WFI-USP), 10 mg in WFI-USP (water for injection), read-out: 0.01 ml Very soluble (1 g/ml)",< 1000 mg/mL
same,solubility,"[1]; water for injection (WFI-USP), 10 mg in WFI-USP (water for injection), read-out: 0.5 ml Soluble (0.02 g/ml; 20 mg/ml)",> 20 mg/mL
same,solubility,"[1]; water for injection (WFI-USP), 10 mg in WFI-USP (water for injection), read-out: 1 ml Sparingly soluble (0.01 g/ml; 10 mg/ml)",> 10 mg/mL
same,solubility,"[1]; water for injection (WFI-USP), 0.1 ml Freely soluble (0.1 g/ml), 10 mg in WFI-USP (water for injection)",< 100 mg/mL
same,solubility,"[1]; water for injection (WFI-USP), 10 ml Slightly soluble (0.001 g/ml; 1 mg/ml), 10 mg in WFI-USP (water for injection)",> 1 mg/mL
same,growth inhibition,[2],significant growth inhibition
